The record followed here is US9518060B2, “Substituted pyrrolo[3,4-c]pyrazoles as PKC kinase inhibitors” (PFIZER INC., priority 2007, dated 2016).

Structures are written as SMILES. pKi: −log10 of the molar value. Counter-ions that a name gives are not always drawn.

The target in this test is Protein Kinase C beta 2 (PKCβII) (Homo sapiens (Human), UniProt P05771). The test is described as follows: PKCβII coupled spectrophotometric kinase assay (PK/LDH, NADH absorbance at 340 nm). To be noted: apparent Ki, ATP competitive inhibition model (Morrison equation); 0.1 mM ATP, 5 nM PKC, 30° C.; read-out: Ki app. Type of test: biochemical. Summed up: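 PK/LDH-coupled ADP detection (NADH loss at 340 nm), 20 min at 30° C, pH 7.4; 5 nM PKCβII, 0.15 mM pseudosubstrate peptide, 0.1 mM ATP, with CaCl2, PS and PMA activators, 7.5% DMSO. Apparent Ki from initial velocities fitted to ATP-competitive Morrison model over 10,000–0.169 nM inhibitor.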
Sequence of Protein Kinase C beta 2 (PKCβII) (P05771 other isoform, or with tags, fused parts or gaps): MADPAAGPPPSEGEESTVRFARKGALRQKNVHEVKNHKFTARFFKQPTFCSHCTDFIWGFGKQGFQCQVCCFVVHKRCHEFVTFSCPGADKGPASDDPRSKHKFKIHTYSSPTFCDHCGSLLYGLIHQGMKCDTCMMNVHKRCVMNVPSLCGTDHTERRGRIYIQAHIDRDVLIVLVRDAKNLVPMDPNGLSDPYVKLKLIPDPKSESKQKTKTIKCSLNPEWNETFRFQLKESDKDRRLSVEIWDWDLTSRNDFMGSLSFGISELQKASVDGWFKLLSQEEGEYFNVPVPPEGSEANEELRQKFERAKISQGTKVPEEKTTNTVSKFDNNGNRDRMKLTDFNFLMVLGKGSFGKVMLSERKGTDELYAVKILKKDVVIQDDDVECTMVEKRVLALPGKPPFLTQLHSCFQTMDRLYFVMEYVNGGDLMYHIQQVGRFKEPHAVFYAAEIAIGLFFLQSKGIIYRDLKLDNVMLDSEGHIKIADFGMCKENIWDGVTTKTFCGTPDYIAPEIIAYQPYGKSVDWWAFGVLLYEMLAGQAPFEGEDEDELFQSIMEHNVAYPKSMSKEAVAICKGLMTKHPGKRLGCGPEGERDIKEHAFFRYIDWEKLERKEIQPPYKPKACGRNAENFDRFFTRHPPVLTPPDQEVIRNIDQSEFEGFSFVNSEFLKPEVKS
Turning to `COCCCOc1ncc(F)c(Nc2n[nH]c3c2CN(C(=O)C2(F)CCN(C)CC2)C3(C)C)n1` [Example L3, N-[5-fluoro-2-(3-methoxypropoxy)pyrimidin-4-yl]-5-[(4-fluoro-1-methylpiperidin-4-yl)carbonyl]-6,6-dimethyl-1,4,5,6-tetrahydropyrrolo[3,4-c]pyrazol-3-amine], the pKi is 7.23.
As for `CCOc1ncc(F)c(Nc2n[nH]c3c2CN(C(=O)C2CCN(CCC(F)(F)F)CC2)C3(C)C)n1` [Example L5, N-(2-ethoxy-5-fluoropyrimidin-4-yl)-6,6-dimethyl-5-{[1-(3,3,3-trifluoropropyl)piperidin-4-yl]carbonyl}-1,4,5,6-tetrahydropyrrolo[3,4-c]pyrazol-3-amine], the pKi was 6.89.
The figure for `CCc1ncc(F)c(Nc2n[nH]c3c2CN(C(=O)N2C[C@@H](C)N(CCCOC)C[C@@H]2C)C3(C)C)n1` [Example E2, N-(2-ethyl-5-fluoropyrimidin-4-yl)-5-{[(2S,5R)-4-(3-methoxypropyl)-2,5-dimethylpiperazin-1-yl]carbonyl}-6,6-dimethyl-1,4,5,6-tetrahydropyrrolo[3,4-c]pyrazol-3-amine] is 8.79.
`CCOc1ncc(F)c(Nc2n[nH]c3c2CN(C(=O)N2C[C@@H](C)N(CCOC)C[C@@H]2C)C3(C)C)n1` [Example K4, N-(2-ethoxy-5-fluoropyrimidin-4-yl)-5-{[(2S,5R)-4-(2-methoxyethyl)-2,5-dimethylpiperazin-1-yl]carbonyl}-6,6-dimethyl-1,4,5,6-tetrahydropyrrolo[3,4-c]pyrazol-3-amine]: the pKi was 8.48.
On to `C[C@@H]1CN(C(=O)N2Cc3c(Nc4nccc(C(F)(F)F)n4)n[nH]c3C2(C)C)[C@@H](C)CN1C1CCOCC1` [Example J13], for which the pKi was above 8.00.
As for `CCc1ncc(F)c(Nc2n[nH]c3c2CN(C(=O)C2(F)CCN(C)CC2)C3(C)C)n1` [Example G1, N-(2-ethyl-5-fluoropyrimidin-4-yl)-5-[(4-fluoro-1-methylpiperidin-4-yl)carbonyl]-6,6-dimethyl-1,4,5,6-tetrahydropyrrolo[3,4-c]pyrazol-3-amine], the figure is 7.60; as for `C[C@H]1CN(C)C(C)(C)CN1C(=O)N1Cc2c(Nc3nc(NC4CC4)ncc3F)n[nH]c2C1(C)C` [Example A5, N2-cyclopropyl-N4-(6,6-dimethyl-5-{[(2S)-2,4,5,5-tetramethylpiperazin-1-yl]carbonyl}-1,4,5,6-tetrahydropyrrolo[3,4-c]pyrazol-3-yl)-5-fluoropyrimidine-2,4-diamine], 8.40.
Take `Cc1ncc(F)c(Nc2n[nH]c3c2CN(C(=O)N2C[C@@H](C)N(C)C[C@@H]2C)C3(C)C)n1` [Example H2, N-(5-fluoro-2-methylpyrimidin-4-yl)-6,6-dimethyl-5-{[(2S,5R)-2,4,5-trimethylpiperazin-1-yl]carbonyl}-1,4,5,6-tetrahydropyrrolo[3,4-c]pyrazol-3-amine]: the negative logarithm of the Ki (pKi) is 7.74.
Consider `CCOc1ncc(F)c(Nc2n[nH]c3c2CN(C(=O)N2C[C@@H](C)N(CCCOC)C[C@@H]2C)C3(C)C)n1` [Example K5], for which the pKi was 9.17.
As for `C[C@H]1CN(C)C(C)(C)CN1C(=O)N1Cc2c(Nc3nc(NCC4CC4)ncc3F)n[nH]c2C1(C)C` [Example A3, N^2-(cyclopropylmethyl)-N^4-(6,6-dimethyl-5-{[(2S)-2,4,5,5-tetramethylpiperazin-1-yl]carbonyl}-1,4,5,6-tetrahydropyrrolo[3,4-c]pyrazol-3-yl)-5-fluoropyrimidine-2,4-diamine], the figure is 7.75; as for `CCOc1ncc(F)c(Nc2n[nH]c3c2CN(C(=O)N2C[C@]4(C)CCCN4C[C@@H]2C)C3(C)C)n1` [Example K15, 5-{[(3S,8aS)-3,8a-dimethylhexahydropyrrolo[1,2-a]pyrazin-2(1H)-yl]carbonyl}-N-(2-ethoxy-5-fluoropyrimidin-4-yl)-6,6-dimethyl-1,4,5,6-tetrahydropyrrolo[3,4-c]pyrazol-3-amine], 7.95.
As for `Cc1ccc(F)c(Nc2n[nH]c3c2CN(C(=O)N2C[C@@H]4CCCN4C[C@@H]2C)C3(C)C)n1` [Example J5, N-(3-fluoro-6-methylpyridin-2-yl)-6,6-dimethyl-5-{[(3S,8aS)-3-methylhexahydropyrrolo[1,2-a]pyrazin-2(1H)-yl]carbonyl}-1,4,5,6-tetrahydropyrrolo[3,4-c]pyrazol-3-amine], the figure is 8.19.
As for `Cc1ncc(F)c(Nc2n[nH]c3c2CN(C(=O)N2C[C@@H](C)N(CCCO)C[C@@H]2C)C3(C)C)n1` (stereo in doubt) [AA5, [3-(5-fluoro-2-methyl-pyrimidin-4-ylamino)-6,6-dimethyl-4,6-dihydro-1H-pyrrolo[3,4-c]pyrazol-5-yl]-[4-(3-hydroxy-propyl)-2,5-dimethyl-piperazin-1-yl]-methanone], the figure is 7.54; as for `Cc1ncc(F)c(Nc2n[nH]c3c2CN(C(=O)N2CC(CCO)N(C)C[C@@H]2C)C3(C)C)n1` (single isomer, unassigned) [Example H10], 6.74.
In the case of `CCOc1ncc(F)c(Nc2n[nH]c3c2CN(C(=O)N2C[C@@H]4CCCN4C[C@@H]2C(C)C)C3(C)C)n1` [Example K20, N-(2-ethoxy-5-fluoropyrimidin-4-yl)-5-{[(3S,8aS)-3-isopropylhexahydropyrrolo[1,2-a]pyrazin-2(1H)-yl]carbonyl}-6,6-dimethyl-1,4,5,6-tetrahydropyrrolo[3,4-c]pyrazol-3-amine], the pKi is 7.59.
As to `CCOc1ncc(F)c(Nc2n[nH]c3c2CN(C(=O)N2C[C@@H](C)N(CC)C[C@@H]2C)C3(C)C)n1` [Example K2, N-(2-ethoxy-5-fluoropyrimidin-4-yl)-6,6-dimethyl-5-{[4-ethyl(2S,5R)-2,5-dimethylpiperazin-1-yl]carbonyl}-1,4,5,6-tetrahydropyrrolo[3,4-c]pyrazol-3-amine], the pKi was 8.68.
As for `CCOc1ncc(F)c(Nc2n[nH]c3c2CN(C(=O)N2CCN4CCC[C@@H]4C2)C3(C)C)n1` [Example K14, [3-(2-Ethoxy-5-fluoro-pyrimidin-4yl-amino)-6,6-dimethyl-4,6-dihydro-1H-pyrrolo[3,4-c]pyrazol-5-yl]-(R)-hexahydro-pyrrolo[1,2-a]pyrazin-2-yl-methanone], the figure is 7.14.
As to `Cc1ccnc(Nc2n[nH]c3c2CN(C(=O)N2C[C@@H](C)N(CC4CCOCC4)C[C@@H]2C)C3(C)C)n1` [Example J15, 5-{[(2S,5R)-2,5-dimethyl-4-(tetrahydro-2H-pyran-4-ylmethyl)piperazin-1-yl]carbonyl}-6,6-dimethyl-N-(4-methylpyrimidin-2-yl)-1,4,5,6-tetrahydropyrrolo[3,4-c]pyrazol-3-amine], the pKi is above 8.00.
The figure for `C[C@@H]1CN(C(=O)N2Cc3c(Nc4ccnc(C#N)n4)n[nH]c3C2(C)C)[C@@H](C)CN1C` [Example B6, 4-[(6,6-dimethyl-5-{[(2S,5R)-2,4,5-trimethylpiperazin-1-yl]carbonyl}-1,4,5,6-tetrahydropyrrolo[3,4-c]pyrazol-3-yl)amino]pyrimidine-2-carbonitrile] is 8.61; for `CCNc1ncc(F)c(Nc2n[nH]c3c2CN(C(=O)N2C[C@@H]4CCCN4C[C@@H]2C)C3(C)C)n1` [Example B2, N^4-(6,6-dimethyl-5-{[(3S,8aS)-3-methylhexahydropyrrolo[1,2-a]pyrazin-2(1H)-yl]carbonyl}-1,4,5,6-tetrahydropyrrolo[3,4-c]pyrazol-3-yl)-N^2-ethyl-5-fluoropyrimidine-2,4-diamine] it is 7.61.
The figure for `Cc1ccc(F)c(Nc2n[nH]c3c2CN(C(=O)N2CC(C)(C)N(C)C[C@@H]2C)C3(C)C)n1` [Example J6, N-(3-fluoro-6-methylpyridin-2-yl)-6,6-dimethyl-5-{[(2S)-2,4,5,5-tetramethylpiperazin-1-yl]carbonyl}-1,4,5,6-tetrahydropyrrolo[3,4-c]pyrazol-3-amine] is 8.93; for `COc1ccnc(Nc2n[nH]c3c2CN(C(=O)N2C[C@@H](C)N(CC4CCOCC4)C[C@@H]2C)C3(C)C)n1` [Example J14, 5-{[(2S,5R)-2,5-dimethyl-4-(tetrahydro-2H-pyran-4-ylmethyl)piperazin-1-yl]carbonyl}-N-(4-methoxypyrimidin-2-yl)-6,6-dimethyl-1,4,5,6-tetrahydropyrrolo[3,4-c]pyrazol-3-amine] it is 7.72; for `Cc1ncc(F)c(Nc2n[nH]c3c2CN(C(=O)N2C[C@@H](C)N(CC4(O)CCOCC4)C[C@@H]2C)C3(C)C)n1` [Example H8, 4-[((2R,5S)-4-{[3-[(5-fluoro-2-methylpyrimidin-4-yl)amino]-6,6-dimethyl-4,6-dihydropyrrolo[3,4-c]pyrazol-5(1H)-yl]carbonyl}-2,5-dimethylpiperazin-1-yl)methyl]tetrahydro-2H-pyran-4-ol] it is 6.80.
Consider `CCOc1ccnc(Nc2n[nH]c3c2CN(C(=O)N2C[C@@H](C)N(CCCOC)C[C@@H]2C)C3(C)C)n1` [Example M2, N-(4-ethoxypyrimidin-2-yl)-5-{[(2S,5R)-4-(3-methoxypropyl)-2,5-dimethylpiperazin-1-yl]carbonyl}-6,6-dimethyl-1,4,5,6-tetrahydropyrrolo[3,4-c]pyrazol-3-amine], for which the pKi was 7.79.
The figure for `CCNc1ncc(F)c(Nc2n[nH]c3c2CN(C(=O)N2C[C@@H](C)N(CCCOC)C[C@@H]2C)C3(C)C)n1` [Example B1, N^2-ethyl-5-fluoro-N^4-(5-{[(2S,5R)-4-(3-methoxypropyl)-2,5-dimethylpiperazin-1-yl]carbonyl}-6,6-dimethyl-1,4,5,6-tetrahydropyrrolo[3,4-c]pyrazol-3-yl)pyrimidine-2,4-diamine acetate salt] is 8.29.
As for `Cc1ncc(F)c(Nc2n[nH]c3c2CN(C(=O)N2CC(CCO)N(C)C[C@@H]2C)C3(C)C)n1` (single isomer, unassigned) [Example H9], the figure is 7.24.

Usually pKi stands for −log10 of the Ki, conventionally taken in molar units.
